{
  "source": "ChEMBL document CHEMBL1130728",
  "about": "“Alkoxide-catalyzed ring-opening of a novel homosaccharin derivative: synthesis of potent, selective P3-lactam thrombin inhibitors containing P4-o-alkoxycarbonylbenzylsulfonamide residues” (Bioorg Med Chem Lett, 1998)",
  "key": {"Plasminogen [1]": {"target": "T1, Plasminogen (Rattus norvegicus, UniProt Q01177)", "T1 sequence (Q01177 97-581 limits assumed)": "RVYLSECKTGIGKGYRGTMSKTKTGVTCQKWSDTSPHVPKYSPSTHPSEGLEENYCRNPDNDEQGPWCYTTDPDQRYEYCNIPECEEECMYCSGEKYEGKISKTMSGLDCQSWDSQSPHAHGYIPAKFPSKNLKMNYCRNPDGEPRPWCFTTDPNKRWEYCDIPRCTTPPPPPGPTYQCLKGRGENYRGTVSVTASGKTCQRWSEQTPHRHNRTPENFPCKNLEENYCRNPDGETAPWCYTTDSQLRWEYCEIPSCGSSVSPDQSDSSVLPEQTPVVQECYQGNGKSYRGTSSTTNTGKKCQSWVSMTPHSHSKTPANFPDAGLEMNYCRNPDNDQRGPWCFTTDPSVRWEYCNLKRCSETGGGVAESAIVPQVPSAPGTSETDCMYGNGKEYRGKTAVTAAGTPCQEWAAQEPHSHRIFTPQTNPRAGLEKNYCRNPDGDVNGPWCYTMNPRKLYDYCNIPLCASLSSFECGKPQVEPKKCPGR", "T1 sequence (Q01177 582-812 limits assumed)": "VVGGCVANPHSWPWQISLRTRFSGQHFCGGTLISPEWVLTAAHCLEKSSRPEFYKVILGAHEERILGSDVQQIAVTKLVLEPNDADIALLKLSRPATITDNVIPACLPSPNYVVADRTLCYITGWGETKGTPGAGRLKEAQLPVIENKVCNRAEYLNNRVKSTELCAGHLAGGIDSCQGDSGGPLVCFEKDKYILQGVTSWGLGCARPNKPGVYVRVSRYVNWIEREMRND", "experiment": "In vitro inhibitory activity was evaluated against thrombolytic enzyme plasmin; call rule not given here"}, "Coagulation factor X": {"target": "Coagulation factor X (Homo sapiens, UniProt P00742)", "sequence (P00742 41-179 limits assumed)": "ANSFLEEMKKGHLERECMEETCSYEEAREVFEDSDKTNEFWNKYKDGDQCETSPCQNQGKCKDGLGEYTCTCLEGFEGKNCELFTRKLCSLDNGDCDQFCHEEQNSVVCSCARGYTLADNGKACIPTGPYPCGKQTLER", "sequence (P00742 235-488 limits assumed)": "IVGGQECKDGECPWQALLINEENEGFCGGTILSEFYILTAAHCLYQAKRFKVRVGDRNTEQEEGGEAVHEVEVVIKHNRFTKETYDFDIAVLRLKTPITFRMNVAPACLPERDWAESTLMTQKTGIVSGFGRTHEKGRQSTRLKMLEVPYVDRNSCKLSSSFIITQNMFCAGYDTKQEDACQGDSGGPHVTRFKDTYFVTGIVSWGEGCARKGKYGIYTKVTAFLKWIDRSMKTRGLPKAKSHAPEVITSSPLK", "experiment": "In vitro inhibitory activity was evaluated against Coagulation factor X"}, "Serine protease 1": {"target": "Serine protease 1 (Homo sapiens, UniProt P07477)", "sequence (P07477 whole entry)": "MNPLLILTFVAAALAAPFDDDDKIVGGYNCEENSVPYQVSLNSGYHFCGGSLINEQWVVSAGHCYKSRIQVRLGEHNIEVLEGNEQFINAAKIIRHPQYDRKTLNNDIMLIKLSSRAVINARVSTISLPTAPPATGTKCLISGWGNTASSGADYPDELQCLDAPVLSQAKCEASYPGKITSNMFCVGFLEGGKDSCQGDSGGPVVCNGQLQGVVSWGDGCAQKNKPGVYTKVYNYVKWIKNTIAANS", "experiment": "In vitro inhibitory activity was evaluated against human trypsin"}, "[2]": {"experiment": "In vitro inhibitory activity was evaluated against FIIa serine protease"}, "Plasminogen [3]": {"target": "T1, Plasminogen", "experiment": "In vitro inhibitory activity was evaluated against thrombolytic enzyme plasmin; Inactive"}},
  "data": [
    {"smiles": "CCCCCCCCCCOC(=O)c1ccccc1CS(=O)(=O)N[C@H]1CCCCN(CC(=O)N[C@H]2CCCN(C(=N)N)C2O)C1=O", "note": "(stereo not given in full)", "values": [
      {"measurement": "IC50", "setting": "Plasminogen [1]", "result": "> 2500", "unit": "nM"},
      {"measurement": "IC50", "setting": "Coagulation factor X", "result": "> 2500", "unit": "nM"},
      {"measurement": "IC50", "setting": "Serine protease 1", "result": 143, "unit": "nM"},
      {"measurement": "IC50", "setting": "[2]", "result": 7.03, "unit": "nM"}
    ]},
    {"smiles": "N=C(N)N1CCC[C@H](NC(=O)CN2CCCC[C@H](NS(=O)(=O)Cc3ccccc3C(=O)O)C2=O)C1O", "note": "(stereo not given in full)", "values": [
      {"measurement": "IC50", "setting": "Plasminogen [1]", "result": "> 2500", "unit": "nM"},
      {"measurement": "IC50", "setting": "Coagulation factor X", "result": "> 2500", "unit": "nM"},
      {"measurement": "IC50", "setting": "Serine protease 1", "result": 247, "unit": "nM"},
      {"measurement": "IC50", "setting": "[2]", "result": 39.1, "unit": "nM"}
    ]},
    {"smiles": "CCCOC(=O)c1ccccc1CS(=O)(=O)N[C@H]1CCCCN(CC(=O)N[C@H]2CCCN(C(=N)N)C2O)C1=O", "note": "(stereo not given in full)", "values": [
      {"measurement": "IC50", "setting": "Plasminogen [1]", "result": "> 2500", "unit": "nM"},
      {"measurement": "IC50", "setting": "Coagulation factor X", "result": 451, "unit": "nM"},
      {"measurement": "IC50", "setting": "Serine protease 1", "result": 79.8, "unit": "nM"},
      {"measurement": "IC50", "setting": "[2]", "result": 0.96, "unit": "nM"}
    ]},
    {"smiles": "N=C(N)N1CCC[C@H](NC(=O)CN2CCCC[C@H](NS(=O)(=O)Cc3ccccc3C(=O)OCC3CCCCC3)C2=O)C1O", "note": "(stereo not given in full)", "values": [
      {"measurement": "IC50", "setting": "Plasminogen [1]", "result": 1760, "unit": "nM"},
      {"measurement": "IC50", "setting": "Coagulation factor X", "result": 627, "unit": "nM"},
      {"measurement": "IC50", "setting": "Serine protease 1", "result": 135, "unit": "nM"},
      {"measurement": "IC50", "setting": "[2]", "result": 0.56, "unit": "nM"}
    ]},
    {"smiles": "COC(=O)c1ccccc1CS(=O)(=O)N[C@H]1CCCCN(CC(=O)N[C@H]2CCCN(C(=N)N)C2O)C1=O", "note": "(stereo not given in full)", "values": [
      {"measurement": "IC50", "setting": "Plasminogen [1]", "result": "> 2500", "unit": "nM"},
      {"measurement": "IC50", "setting": "Coagulation factor X", "result": 333, "unit": "nM"},
      {"measurement": "IC50", "setting": "Serine protease 1", "result": 118, "unit": "nM"},
      {"measurement": "IC50", "setting": "[2]", "result": 0.75, "unit": "nM"}
    ]},
    {"smiles": "N=C(N)N1CCC[C@H](NC(=O)CN2CCCC[C@H](N3C(=O)c4ccccc4CS3(=O)=O)C2=O)C1O", "note": "(stereo not given in full)", "values": [
      {"measurement": "IC50", "setting": "Plasminogen [1]", "result": "> 2500", "unit": "nM"},
      {"measurement": "IC50", "setting": "Coagulation factor X", "result": "> 2500", "unit": "nM"},
      {"measurement": "IC50", "setting": "Serine protease 1", "result": 2500, "unit": "nM"},
      {"measurement": "IC50", "setting": "[2]", "result": 244, "unit": "nM"}
    ]},
    {"smiles": "CC(C)OC(=O)c1ccccc1CS(=O)(=O)N[C@H]1CCCCN(CC(=O)N[C@H]2CCCN(C(=N)N)C2O)C1=O", "note": "(stereo not given in full)", "values": [
      {"measurement": "IC50", "setting": "Plasminogen [1]", "result": "> 2500", "unit": "nM"},
      {"measurement": "IC50", "setting": "Coagulation factor X", "result": 369, "unit": "nM"},
      {"measurement": "IC50", "setting": "Serine protease 1", "result": 41.3, "unit": "nM"},
      {"measurement": "IC50", "setting": "[2]", "result": 0.94, "unit": "nM"}
    ]},
    {"smiles": "N=C(N)N1CCC[C@H](NC(=O)CN2CCC[C@H](NS(=O)(=O)Cc3ccccc3)C2=O)C1O", "note": "(stereo not given in full)", "values": [
      {"measurement": "IC50", "setting": "Coagulation factor X", "result": "> 2500", "unit": "nM"},
      {"measurement": "IC50", "setting": "Plasminogen [3]", "result": "Not Active"},
      {"measurement": "IC50", "setting": "[2]", "result": 6.2, "unit": "nM"}
    ]},
    {"smiles": "N=C(N)N1CCC[C@H](NC(=O)CN2CCCC[C@H](NS(=O)(=O)Cc3ccccc3)C2=O)C1O", "note": "(stereo not given in full)", "values": [
      {"measurement": "IC50", "setting": "Plasminogen [1]", "result": "> 2500", "unit": "nM"},
      {"measurement": "IC50", "setting": "Coagulation factor X", "result": 39.6, "unit": "nM"},
      {"measurement": "IC50", "setting": "Serine protease 1", "result": 101, "unit": "nM"},
      {"measurement": "IC50", "setting": "[2]", "result": 0.7, "unit": "nM"}
    ]}
  ]
}
